# Like-named read-outs stand apart in the source and are kept apart here. Where a SMILES comes first, the peptide text is derived from it.
# Experiments:
# Format in all cases: cell-based, Candida albicans
# C. albicans opt2Δ opt3Δ [1] = assay: Initial peptide uptake rate; details: 50 mM potassium phosphate buffer (pH 5.0 or 6.5) + 1% glucose, 30°C, 100 μM peptide, TNBS A420, slope 0- to 10-min
# Method: (§1) Yeast cells grown exponentially in the YNB-SG medium were harvested by centrifugation (3000 ×g, 5 min), washed with 50 mM potassium phosphate buffer (pH 5.0 or 6.5), and suspended in the same buffer containing 1% glucose, to a final cell density corresponding to A660 ≅ 1.0. The cell suspension was incubated at 30°C. After 10 min, an oligopeptide solution was added, to give a final concentration of 100 μM. At that moment and at 5 min intervals thereafter, 2 mL samples of the cell suspension were withdrawn, immediately filtered through the Whatman GF/A filters and the filtrates were used to determine the residual peptide concentration. Then, the 1 mL portions of the filtrates were taken and combined with 1.25 mL aliquots of a solution containing 4% Na2B4O7 × 10 H2O and 0.8 mg mL^-1 of 2,4,6-trinitrobenzenesulfonate. The reaction was carried out at 37°C for 30 min. The A420 values were measured and the peptide concentration was read from the appropriate standard curve. Data were plotted as nanomoles of an oligopeptide, taken up by 1 mg (dry weight) of cells versus time. The initial uptake velocities were determined from the slopes of the linear part of the curves, in the 0- to 10-min region.
# C. albicans opt5Δ [2] = assay: Initial peptide uptake rate; details: 50 mM potassium phosphate buffer (pH 5.0 or 6.5) + 1% glucose, 30°C, 100 μM peptide, TNBS A420, slope 0- to 10-min
# Method: as §1
# C. albicans SC5314 [3] = assay: Initial peptide uptake rate; details: SC 5314; cells grown in YNB-SG; 50 mM potassium phosphate buffer (pH 5.0 or 6.5) + 1% glucose, 30°C, 100 μM peptide, residual peptide by TNBS A420, slope 0- to 10-min
# Method: as §1
# C. albicans opt1Δ [4] = assay: Initial peptide uptake rate; details: 50 mM potassium phosphate buffer (pH 5.0 or 6.5) + 1% glucose, 30°C, 100 μM peptide, TNBS A420, slope 0- to 10-min
# Method: as §1
# [5] = system: C. albicans opt1–opt5Δ ptr2Δ ptr22Δ; assay: Initial peptide uptake rate; details: 50 mM potassium phosphate buffer (pH 5.0 or 6.5) + 1% glucose, 30°C, 100 μM peptide, TNBS A420, slope 0- to 10-min
# Method: as §1
# C. albicans opt1–opt5Δ [6] = assay: Initial peptide uptake rate; details: 50 mM potassium phosphate buffer (pH 5.0 or 6.5) + 1% glucose, 30°C, 100 μM peptide, TNBS A420, slope 0- to 10-min
# Method: as §1
# C. albicans opt4Δ [7] = assay: Initial peptide uptake rate; details: 50 mM potassium phosphate buffer (pH 5.0 or 6.5) + 1% glucose, 30°C, 100 μM peptide, TNBS A420, slope 0- to 10-min
# Method: as §1
# C. albicans ptr2Δ ptr22Δ [8] = assay: Initial peptide uptake rate; details: 50 mM potassium phosphate buffer (pH 5.0 or 6.5) + 1% glucose, 30°C, 100 μM peptide, TNBS A420, slope 0- to 10-min
# Method: as §1
# C. albicans opt2Δ opt3Δ [9] = details: turbidity 531 nm, at least 80% decrease
# Method: (§2) Strains were grown at 30°C in YPD medium (1% yeast extract, 2% peptone, and 2% glucose) and stored on YPD plates containing 2% agar. Susceptibility testing was performed in YPD and other three media: (a) RPMI-1640 w/o sodium bicarbonate, with L-glutamine + 2% glucose + 3.45% MOPS, pH adjusted to 7.0; (b) YNB-AS—Yeast Nitrogen Base w/o amino acids (contains ammonium sulfate 5 g L^-1) + 2% glucose; (c) YNB-SG—Yeast Nitrogen Base w/o amino acids and ammonium sulfate + 2% glucose + 0.2 g L^-1 sodium glutamate. In their solid version, used for the mutant generation and isolation, YNB-AS and YNB-SG contained 2% agar.
# (§3) The in vitro growth inhibitory activity of antifungals was quantified by determination of minimal inhibitory concentration (MIC) values by the serial twofold dilution method, using the 96-well microtiter plates in three media: buffered RPMI-1640, YNB-AS, and YNB-SG. Conditions of the RPMI-1640-based assay were the same as outlined in the CLSI recommendations ([Clinical Laboratory Standards Institute, 2008]), except for the end-point readout that was done by spectrophotometric determination of cell density at 531 nm. Turbidity in individual wells was measured with a microplate reader (Victor^3; Perkin Elmer). MIC was defined as the lowest drug concentration that gave at least an 80% decrease in turbidity, relative to that of the drug-free growth control.
# (§4) The 96-well microtiter plates were also used for determination of in vitro growth inhibitory activity in YPD and YNB-based media. Individual wells were inoculated with 5 × 10^3 cfu mL^-1 of C. albicans cells from the overnight culture in YPD medium. The inoculated plates were incubated 37°C for 24 h and then turbidity was measured with a microplate reader at 531 nm, as described above for the RPMI-1640-based assay.
# C. albicans opt5Δ [10] = details: turbidity 531 nm, at least 80% decrease
# Method: as §2, §3, §4
# C. albicans SC5314 [11] = details: SC 5314
# Method: as §2, §3, §4
# C. albicans opt1Δ [12] = details: turbidity 531 nm, at least 80% decrease
# Method: as §2, §3, §4
# [13] = system: C. albicans opt1–opt5Δ ptr2Δ ptr22Δ; details: turbidity 531 nm, at least 80% decrease
# Method: as §2, §3, §4
# C. albicans opt1–opt5Δ [14] = details: turbidity 531 nm, at least 80% decrease
# Method: as §2, §3, §4
# C. albicans opt4Δ [15] = details: turbidity 531 nm, at least 80% decrease
# Method: as §2, §3, §4
# C. albicans ptr2Δ ptr22Δ [16] = details: turbidity 531 nm, at least 80% decrease
# Method: as §2, §3, §4
# [17] = RPMI-1640 medium, MOPS pH 7.0, CLSI conditions
compound,measurement,setting,value
"CSCC[C@H](NC(=O)[C@@H](NC(=O)[C@@H]1CCCN1C(=O)[C@H](CC(C)C)NC(=O)[C@@H](N)CCCCN)C(C)C)C(=O)O [Peptide P5, Lys-Leu-Pro-Val-Met, reference compound] (H-KLPVM-OH)",Uptake rate ± SD,C. albicans opt2Δ opt3Δ [1],0.52 ± 0.08 nmol min^-1 (mg dry weight)^-1
same,Uptake rate ± SD,C. albicans opt5Δ [2],1.82 ± 0.11 nmol min^-1 (mg dry weight)^-1
same,Uptake rate ± SD,C. albicans SC5314 [3],2.66 ± 0.19 nmol min^-1 (mg dry weight)^-1
same,Uptake rate ± SD,C. albicans opt1Δ [4],2.01 ± 0.16 nmol min^-1 (mg dry weight)^-1
same,Uptake rate ± SD,[5],0.15 ± 0.04 nmol min^-1 (mg dry weight)^-1
same,Uptake rate ± SD,C. albicans opt1–opt5Δ [6],0.39 ± 0.07 nmol min^-1 (mg dry weight)^-1
same,Uptake rate ± SD,C. albicans opt4Δ [7],1.95 ± 0.13 nmol min^-1 (mg dry weight)^-1
same,Uptake rate ± SD,C. albicans ptr2Δ ptr22Δ [8],2.56 ± 0.18 nmol min^-1 (mg dry weight)^-1
"N=C(N)NCCC[C@H](N)C(=O)N[C@@H](CCCCN)C(=O)N[C@@H](CCCCN)C(=O)N[C@@H](Cc1c[nH]c2ccccc12)C(=O)N[C@@H](Cc1ccccc1)C(=O)N[C@@H](Cc1c[nH]c2ccccc12)C(=O)O [Peptide P6, Arg-Lys-Lys-Trp-Phe-Trp, reference compound] (H-RKKWFW-OH)",Uptake rate ± SD,C. albicans opt2Δ opt3Δ [1],0.40 ± 0.09 nmol min^-1 (mg dry weight)^-1
same,Uptake rate ± SD,C. albicans opt5Δ [2],1.99 ± 0.10 nmol min^-1 (mg dry weight)^-1
same,Uptake rate ± SD,C. albicans SC5314 [3],2.22 ± 0.11 nmol min^-1 (mg dry weight)^-1
same,Uptake rate ± SD,C. albicans opt1Δ [4],1.85 ± 0.15 nmol min^-1 (mg dry weight)^-1
same,Uptake rate ± SD,[5],0.12 ± 0.03 nmol min^-1 (mg dry weight)^-1
same,Uptake rate ± SD,C. albicans opt1–opt5Δ [6],0.22 ± 0.07 nmol min^-1 (mg dry weight)^-1
same,Uptake rate ± SD,C. albicans opt4Δ [7],2.11 ± 0.16 nmol min^-1 (mg dry weight)^-1
same,Uptake rate ± SD,C. albicans ptr2Δ ptr22Δ [8],2.46 ± 0.19 nmol min^-1 (mg dry weight)^-1
"CC(C)[C@H](NC(=O)[C@H](Cc1c[nH]c2ccccc12)NC(=O)[C@H](Cc1ccccc1)NC(=O)[C@@H](NC(=O)[C@@H](NC(=O)[C@H](CCCCN)NC(=O)[C@@H](N)CCCCN)C(C)C)C(C)C)C(=O)N[C@@H](CCCCN)C(=O)N[C@@H](Cc1ccccc1)C(=O)N[C@@H](CCCCN)C(=O)O [Peptide P10, Lys-Lys-Val-Val-Phe-Trp-Val-Lys-Phe-Lys] (H-KKVVFWVKFK-OH)",Uptake rate ± SD,C. albicans opt2Δ opt3Δ [1],<0.1 nmol min^-1 (mg dry weight)^-1
same,Uptake rate ± SD,C. albicans opt5Δ [2],<0.1 nmol min^-1 (mg dry weight)^-1
same,Uptake rate ± SD,C. albicans SC5314 [3],<0.1 nmol min^-1 (mg dry weight)^-1
same,Uptake rate ± SD,C. albicans opt1Δ [4],<0.1 nmol min^-1 (mg dry weight)^-1
same,Uptake rate ± SD,[5],<0.1 nmol min^-1 (mg dry weight)^-1
same,Uptake rate ± SD,C. albicans opt1–opt5Δ [6],<0.1 nmol min^-1 (mg dry weight)^-1
same,Uptake rate ± SD,C. albicans opt4Δ [7],<0.1 nmol min^-1 (mg dry weight)^-1
same,Uptake rate ± SD,C. albicans ptr2Δ ptr22Δ [8],<0.1 nmol min^-1 (mg dry weight)^-1
same,MIC,C. albicans opt2Δ opt3Δ [9]; [17],64 µg/mL
same,MIC,"C. albicans opt2Δ opt3Δ [9]; YNB-AS medium, 37°C, 24 h",64 µg/mL
same,MIC,"C. albicans opt2Δ opt3Δ [9]; YNB-SG medium, 37°C, 24 h",64 µg/mL
same,MIC,C. albicans opt5Δ [10]; [17],64 µg/mL
same,MIC,"C. albicans opt5Δ [10]; YNB-AS medium, 37°C, 24 h",64 µg/mL
same,MIC,"C. albicans opt5Δ [10]; YNB-SG medium, 37°C, 24 h",64 µg/mL
same,MIC,"C. albicans SC5314 [11]; RPMI-1640 medium, MOPS pH 7.0, CLSI conditions, turbidity 531 nm, at least 80% decrease",64 µg/mL
same,MIC,C. albicans SC5314 [11]; YNB + L-Gln (0.3 g L^-1) pH 5.0,64 µg/mL
same,MIC,C. albicans SC5314 [11]; YNB + L-Gln (0.3 g L^-1) pH 7.0,64 µg/mL
same,MIC,C. albicans SC5314 [11]; YNB + amino acid mixture (composition as in RPMI-1640),64 µg/mL
same,MIC,"C. albicans SC5314 [11]; YNB-AS medium, 5 × 10^3 cfu mL^-1, 37°C, 24 h, turbidity 531 nm, at least 80% decrease",64 µg/mL
same,MIC,"C. albicans SC5314 [11]; YNB-SG medium, 5 × 10^3 cfu mL^-1, 37°C, 24 h, turbidity 531 nm, at least 80% decrease",64 µg/mL
same,MIC,C. albicans SC5314 [11]; growth medium YNB-SG (Table 6),64 µg/mL
same,MIC,C. albicans opt1Δ [12]; [17],64 µg/mL
same,MIC,"C. albicans opt1Δ [12]; YNB-AS medium, 37°C, 24 h",64 µg/mL
same,MIC,"C. albicans opt1Δ [12]; YNB-SG medium, 37°C, 24 h",64 µg/mL
same,MIC,[13]; [17],64 µg/mL
same,MIC,"[13]; YNB-AS medium, 37°C, 24 h",64 µg/mL
same,MIC,"[13]; YNB-SG medium, 37°C, 24 h",64 µg/mL
same,MIC,C. albicans opt1–opt5Δ [14]; [17],64 µg/mL
same,MIC,"C. albicans opt1–opt5Δ [14]; YNB-AS medium, 37°C, 24 h",64 µg/mL
same,MIC,"C. albicans opt1–opt5Δ [14]; YNB-SG medium, 37°C, 24 h",64 µg/mL
same,MIC,C. albicans opt4Δ [15]; [17],64 µg/mL
same,MIC,"C. albicans opt4Δ [15]; YNB-AS medium, 37°C, 24 h",64 µg/mL
same,MIC,"C. albicans opt4Δ [15]; YNB-SG medium, 37°C, 24 h",64 µg/mL
same,MIC,C. albicans ptr2Δ ptr22Δ [16]; [17],64 µg/mL
same,MIC,"C. albicans ptr2Δ ptr22Δ [16]; YNB-AS medium, 37°C, 24 h",64 µg/mL
same,MIC,"C. albicans ptr2Δ ptr22Δ [16]; YNB-SG medium, 37°C, 24 h",64 µg/mL

# Source: article PMC5673977, “Transport Deficiency Is the Molecular Basis of Candida albicans Resistance to Antifungal Oligopeptides” (Frontiers in Microbiology, 2017)
